Paper PMC10548421, “Anticancer Potential of Diruthenium Complexes with Bridging Hydrocarbyl Ligands from Bioactive Alkynols” (Inorganic Chemistry, 2023)

Key:
[1] = Stability in DMEM/CH3OH solution (UV–vis); type: physicochemical; conditions: ca. 5:1 v/v
Procedure: (§1) […] The percentage of remaining complex in the solution was calculated by considering the change in absorbance at the characteristic wavelength. The identical procedure was employed to evaluate stability in MeOH and DMEM (about 1:5 v/v) solutions. DMEM stands for the cell culture medium (containing 1000 mg/L glucose and L-glutamine, excluding sodium bicarbonate and phenol red; reference D2902-Merck).

A2780 cells [2] = experiment: Cell cycle analysis (flow cytometry, PI); type: cell-based, human; conditions: A2780, 4 μM, 24 h
Procedure: (§2) The A2780 ovarian carcinoma cell line was received from Merck (reference 93112519–1VL) and cultured at 37 °C in an environment with 5% CO2. The cultivation was carried out in complete cell culture medium (RPMI-1640 medium, Merck), which was supplemented with 10% fetal bovine serum (FBS, Merck), 1% L-glutamine (Merck) and 1% penicillin–streptomycin–neomycin (PSN, Merck). For the flow cytometry experiments, three independent duplicates were analyzed using a BD FACSVerse flow cytometer (Becton Dickinson, USA). At least 5 × 10^3 events were recorded for each sample. The same procedure was replicated for the experiments described below. Solutions of the complexes were formulated using the stock solutions (Section 5.1).
These studies were conducted on A2780 cells using the BD Cycletest Plus DNA kit (from Becton Dickinson, USA). Thus, cells were seeded in 96-well plates (10^4 cells/well) and treated with 4 μM complexes 3a and 3b for 24 h. Following the incubation period, cells underwent a series of procedural steps. Initially, they were rinsed using PBS (0.1 M, pH 7.4). […]

[3] = Stability in H2O/CH3OH solution (UV–vis); type: physicochemical; conditions: ca. 5:1 v/v
Procedure: as §1

[4] = test system: PANC-1 human pancreatic carcinoma cell line; experiment: MTT in vitro cytotoxicity, PANC-1; type: cell-based; conditions: incubation 24 h, mean ± SD
Procedure: (§3) The cytotoxicity assessment was conducted on various human cancer cell lines, including A2780 ovarian carcinoma, A2780R cisplatin-resistant ovarian carcinoma, MCF-7 breast, HOS osteosarcoma, A549 epithelial lung, PANC-1 pancreatic, Caco-2 colorectal, PC-3 prostate adenocarcinoma, and HeLa cervical cell lines. Additionally, the assessment extended to a normal human fetal fibroblast cell line (MRC-5). Cells were obtained from ATCC collection and cultivated according to the producer’s instructions. Stock solutions of the compounds were prepared in DMF immediately before application, and diluted with H2O to achieve the final concentration of 0.1% v/v DMF.[99] The culture media were enriched with 10% fetal calf serum. Subsequently, the cells were exposed to the tested compounds, vehicle (0.1% v/v DMF) and Triton X-100 (1% v/v), during incubation. The conventional MTT assay was carried out following different incubation periods (Tables 5-6). The absorbance was measured at 570 nm by using a spectrophotometer (Infinite M200, Schoeller Instruments, Prague, Czech Republic). The obtained data are presented as the percentage of cell viability with 100% representing negative control treatment (0.1% v/v DMF) and 0% representing the positive control (Triton X-100). The half-maximal inhibitory concentrations (IC50) were determined from dose–response curves using GraphPad Prism 6 software (GraphPad Software, San Diego, USA).

[5] = test system: HeLa human cervical carcinoma cell line; experiment: MTT in vitro cytotoxicity, HeLa; type: cell-based; conditions: incubation 24 h, mean ± SD
Procedure: as §3

[6] = Octanol/water partition coefficient, shake-flask with UV–vis; type: physicochemical; conditions: 21 °C
Procedure: Partition coefficients (Pow), defined by the formula Pow = corg/caq, wherein corg and caq denote the molar concentrations of the specific compound in octanol and aqueous phases, respectively, were obtained using the shake-flask method with UV–vis measurements, following a previously described procedure (Table 3).[98] All the operations were carried out at 21 ± 1 °C. The wavelength corresponding to the maximum absorption of each compound within the range 350–430 nm was employed for quantifying using UV–vis techniques.

[7] = test system: HOS human osteosarcoma cell line; experiment: MTT in vitro cytotoxicity, HOS; type: cell-based; conditions: incubation 24 h, mean ± SD
Procedure: as §3

[8] = test system: Caco-2 human colorectal adenocarcinoma cell line; experiment: MTT in vitro cytotoxicity, Caco-2; type: cell-based; conditions: incubation 24 h, mean ± SD
Procedure: as §3, with “Additionally,” for “The cytotoxicity assessment was conducted on various human cancer cell lines, including A2780 ovarian carcinoma, A2780R cisplatin-resistant ovarian carcinoma, MCF-7 breast, HOS osteosarcoma, A549 epithelial lung, PANC-1 pancreatic, Caco-2 colorectal, PC-3 prostate adenocarcinoma, and HeLa cervical cell lines. Additionally,”

A2780 cells [9] = experiment: Mitochondrial membrane potential analysis (MITO-ID); type: cell-based, human; conditions: A2780, complexes 4 μM, cisplatin 15 μM, 24 h
Procedure: as §2
To investigate the effects on mitochondrial membrane potential of A2780 cells, an MITO-ID Membrane potential detection kit (Enzo Life Sciences, USA) was used. Cells were seeded in a 24-well (5 × 10^4 cells/well), and then incubated with 4 μM solution of complexes for 24 h. The supernatant was collected, cells were washed with warm PBS, detached using 0.25% trypsin-EDTA (Gibco) and resuspended in a cell culture medium. Then, samples were stained with diluted MITO-ID MP Detection Reagent (according to the protocol) at RT for 15 min, prior to flow cytometry analysis. A positive control was established by treating the samples with 2 μM carbonyl cyanide 3-chlorophenylhydrazone.

Structure (SMILES) | residual complex % in DMEM/CH3OH ([1]; 2 h) | residual complex % in DMEM/CH3OH ([1]; 18 h) | effect on the cell cycle (in words) (A2780 cells [2]) | residual complex % in H2O/CH3OH ([3]; 2 h) | residual complex % in H2O/CH3OH ([3]; 18 h) | IC50 [4] | IC50 [5] | Log Pow [6] | IC50 [7] | IC50 [8] | cell count with damaged mitochondrial membranes (in words) (A2780 cells [9]) | residual complex % in H2O/CH3OH ([3]; 30 min)
F[B-](F)(F)F.O=[C]=[Ru+]1([CH]2C=CC=C2)[C](=O)[Ru]1(=[C]=O)([CH]=C=C1CCCC1)[CH]1C=CC=C1 (centres unmarked) [3a, [Ru2Cp2(CO)3{μ–η^1:η^2-CH=C=(cyclopentylidene)}]BF4] | 94% | 12% | strong depression of the cell number in the synthetic (S) phase and second gap and mitotic phases (G2/M) | 96% | 78% | 28.4 ± 3.9 µM | 17.5 ± 2.9 µM | –0.54 ± 0.02 | 14.6 ± 0.5 µM | > 50 µM | notable augmentation | 
CC12CCC3c4ccc(O)cc4CCC3C1CCC2=C=[CH][Ru]1(=[C]=O)([CH]2C=CC=C2)[C](=O)[Ru+]1(=[C]=O)[CH]1C=CC=C1.F[B-](F)(F)F (mixture of isomers) [3b, [Ru2Cp2(CO)3{μ–η^1:η^2-CH=C=(estradiolylidene)}]BF4] | 88% | 42% | strong depression of the cell number in the synthetic (S) phase and second gap and mitotic phases (G2/M) | 92% | 43% | 19.8 ± 2.3 µM | 12.5 ± 1.1 µM | 1.24 ± 0.16 | 12.6 ± 0.5 µM | 36 ± 2.7 µM | notable augmentation | 99%
